Patent US20190284136A1, “INDOLINE DERIVATIVES” (ViiV HEALTHCARE UK LIMITED, priority 2016, published 2019)

system: HIV; assay: Table 1 IC50 of the examples (assay method not given; patent concerns inhibiting HIV replication); format: cell-based; details: Human immunodeficiency virus 1

Row | Structure (SMILES) | IC50 [nM]
1 | Cc1cc2c(c(-c3cc(F)c4c(c3C)CCCO4)c1[C@H](OC(C)(C)C)C(=O)O)CCN2C(=O)c1cncc(F)c1 (atropisomer, axis not shown) [Example 76, (S)-2-(tert-Butoxy)-2-((R)-4-(8-fluoro-5-methylchroman-6-yl)-1-(5-fluoronicotinoyl)-6-methylindolin-5-yl)acetic acid] | 15
2 | Cc1cc2c(c(-c3cc(F)c4c(c3C)CCCO4)c1C(OC(C)(C)C)C(=O)O)CCN2Cc1ccc(F)c(F)c1 (centres unmarked) [Example 2, 2-(tert-Butoxy)-2-(1-(3,4-difluorobenzyl)-4-(8-fluoro-5-methylchroman-6-yl)-6-methylindolin-5-yl)acetic acid] | 330
3 | Cc1cc(C(=O)N2CCc3c2cc(C)c([C@H](OC(C)(C)C)C(=O)O)c3-c2cc(F)c3c(c2C)CCCO3)ccc1Cl (atropisomer, axis not shown) [Example 110, (S)-2-(tert-Butoxy)-2-((R)-1-(4-chloro-3-methylbenzoyl)-4-(8-fluoro-5-methylchroman-6-yl)-6-methylindolin-5-yl)acetic acid] | 4
4 | COc1ccc(C(=O)N2c3cc(C)c([C@H](OC(C)(C)C)C(=O)O)c(-c4cc(F)c5c(c4C)CCCO5)c3CC2(C)C)cc1C (atropisomer, axis not shown) [Example 206, (S)-2-(tert-Butoxy)-2-((R)-4-(8-fluoro-5-methylchroman-6-yl)-1-(4-methoxy-3-methylbenzoyl)-2,2,6-trimethylindolin-5-yl)acetic acid] | 13
5 | Cc1cc2c(c(-c3cc(F)c4c(c3C)CCCO4)c1[C@H](OC(C)(C)C)C(=O)O)CCN2C(=O)c1ccc2c(c1)OCC2 (atropisomer, axis not shown) [Example 178, (S)-2-(tert-Butoxy)-2-((R)-1-(2,3-Dihydrobenzofuran-6-carbonyl)-4-(8-fluoro-5-methylchroman-6-yl)-6-methylindolin-5-yl)acetic acid] | 4
6 | Cc1ccc(-c2c3c(cc(C)c2[C@H](OC(C)(C)C)C(=O)O)N(C(=O)c2ccncc2)CC3)cc1 [Example 40, (S)-2-(tert-Butoxy)-2-(1-isonicotinoyl-6-methyl-4-(p-tolyl)indolin-5-yl)acetic acid] | 283
7 | COc1cc(F)cc(C(=O)N2CCc3c2cc(C)c([C@H](OC(C)(C)C)C(=O)O)c3-c2cc(F)c3c(c2C)CCCO3)c1 [Example 158, (S)-2-(tert-Butoxy)-2-((R)-1-(3-fluoro-5-methoxybenzoyl)-4-(8-fluoro-5-methylchroman-6-yl)-6-methylindolin-5-yl) acetic acid] | 3
8 | Cc1ccc(-c2c3c(cc(C)c2[C@H](OC(C)(C)C)C(=O)O)N(C(=O)c2cccc(F)c2C)CC3)cc1 [Example 30, (S)-2-(tert-Butoxy)-2-(1-(3-fluoro-2-methylbenzov)-6-methyl-4-(p-tolyl)indolin-5-yl)acetic acid] | 8
9 | Cc1cc2c(c(-c3cc(F)c4c(c3C)CCCO4)c1[C@H](OC(C)(C)C)C(=O)O)CCN2C(=O)C1CCCc2ccccc21 (stereo partly drawn) [Example 105, (2S)-2-(tert-Butoxy)-2-((4R)-4-(8-fluoro-5-methylchroman-6-yl)-6-methyl-1-(1,2,3,4-tetrahydronaphthalene-1-carbonyl)indolin-5-yl)acetic acid] | 21
10 | Cc1ccc(-c2c3c(cc(C)c2C(OC(C)(C)C)C(=O)O)N(S(=O)(=O)N2CCCCC2)CCC3)cc1 (centres unmarked) [Example 213, 2-(tert-Butoxy)-2-(7-methyl-1-(piperidin-1-ylsulfonyl)-5-(p-tolyl)-1,2,3,4-tetrahydroquinolin-6-yl)acetic acid] | 3410
11 | Cc1ccc(-c2c3c(cc(C)c2C(OC(C)(C)C)C(=O)O)N(C(=O)OCc2ccccc2)CCC3)cc1 (centres unmarked) [Example 208, 2-(1-((Benzyloxy)carbonyl)-7-methyl-5-(p-tolyl)-1,2,3,4-tetrahydroquinolin-6-yl)-2-(tert-butoxy)acetic acid] | 1120
12 | Cc1ccc(C(=O)N2CCc3c2cc(C)c([C@H](OC(C)(C)C)C(=O)O)c3-c2cc(F)c3c(c2C)CCCO3)cc1F (atropisomer, axis not shown) [Example 73, (S)-2-(tert-Butoxy)-2-((R)-1-(3-fluoro-4-methylbenzoyl)-4-(8-fluoro-5-methylchroman-6-yl)-6-methylindolin-5-yl)acetic acid] | 6
13 | Cc1cc2c(c(-c3cc(F)c4c(c3C)CCCO4)c1[C@H](OC(C)(C)C)C(=O)O)CCN2C(=O)C(=O)c1ccccc1 (atropisomer, axis not shown) [Example 175, (S)-2-(tert-Butoxy)-2-((R)-4-(8-fluoro-5-methylchroman-6-yl)-6-methyl-1-(2-oxo-2-phenylacetyl)indolin-5-yl)acetic acid] | 90
14 | Cc1cc2c(c(-c3cc(F)c4c(c3C)CCCO4)c1[C@H](OC(C)(C)C)C(=O)O)CCN2C(=O)c1ccc(Cl)cc1C(F)(F)F (atropisomer, axis not shown) [Example 156, (S)-2-(tert-Butoxy)-2-((R)-1-(4-chloro-2-(trifluoromethyl)benzoyl)-4-(8-fluoro-5-methylchroman-6-yl)-6-methylindolin-5-yl)acetic acid] | 5
15 | Cc1ccc(-c2c3c(cc(C)c2[C@H](OC(C)(C)C)C(=O)O)N(C(=O)NC2CCCCC2)CC3)cc1 [Example 37, (S)-2-(tert-Butoxy)-2-(1-(cyclohexylcarbamoyl)-6-methyl-4-(p-tolyl)indolin-5-yl)acetic acid] | 80
16 | COc1ccc(C)cc1C(=O)N1CCc2c1cc(C)c([C@H](OC(C)(C)C)C(=O)O)c2-c1cc(F)c2c(c1C)CCCO2 (atropisomer, axis not shown) [Example 99, (S)-2-(tert-Butoxy)-2-((R)-4-(8-fluoro-5-methylchroman-6-yl)-1-(2-methoxy-5-methylbenzoyl)-6-methylindolin-5-yl)acetic acid] | 4
17 | Cc1cc2c(c(-c3cc(F)c4c(c3C)CCCO4)c1[C@H](OC(C)(C)C)C(=O)O)CCN2C(=O)c1cccc(C(F)(F)F)c1F (atropisomer, axis not shown) [Example 160, (S)-2-(tert-Butoxy)-2-((R)-1-(2-fluoro-3-(trifluoromethyl)benzoyl)-4-(8-fluoro-5-methylchroman-6-yl)-6-methylindolin-5-yl)acetic acid] | 14
18 | COc1cc(Cl)cc(C(=O)N2CCc3c2cc(C)c([C@H](OC(C)(C)C)C(=O)O)c3-c2cc(F)c3c(c2C)CCCO3)c1 (atropisomer, axis not shown) [Example 117] | 16
19 | COc1c(C)cccc1C(=O)N1CCc2c1cc(C)c([C@H](OC(C)(C)C)C(=O)O)c2-c1cc(F)c2c(c1C)CCCO2 (atropisomer, axis not shown) [Example 87, (S)-2-(tert-Butoxy)-2-((R)-4-(8-fluoro-5-methylchroman-6-yl)-1-(2-methoxy-3-methylbenzoyl)-6-methylindolin-5-yl)acetic acid] | 5
20 | COc1cncc(C(=O)N2CCc3c2cc(C)c([C@H](OC(C)(C)C)C(=O)O)c3-c2cc(F)c3c(c2C)CCCO3)c1 [Example 151, (2S)-2-(tert-Butoxy)-2-(4-(8-fluoro-5-methylchroman-6-yl)-1-(5-methoxynicotinoyl)-6-methylindolin-5-yl)acetic acid] | 17
21 | Cc1ccc(-c2c3c(cc(C)c2C(OC(C)(C)C)C(=O)O)N(Cc2ccc(F)c(F)c2)CC3)cc1 (centres unmarked) [Example 1] | 517
22 | Cc1cc2c(c(-c3cc(F)c4c(c3C)CCCO4)c1[C@H](OC(C)(C)C)C(=O)O)CCN2C(=O)c1ccc2c(c1)CCC2 (atropisomer, axis not shown) [Example 122, (S)-2-(tert-Butoxy)-2-((R)-1-(2,3-dihydro-1H-indene-5-carbonyl)-4-(8-fluoro-5-methylchroman-6-yl)-6-methylindolin-5-yl)acetic acid] | 17
23 | Cc1ccc(-c2c3c(cc(C)c2[C@H](OC(C)(C)C)C(=O)O)N(C(=O)c2ccc(Cl)cc2)CC3)cc1 [Example 22, (S)-2-(tert-Butoxy)-2-(1-(4-chlorobenzoyl)-6-methyl-4-(p-tolyl)indolin-5-yl)acetic acid] | 11
24 | Cc1ccc(-c2c3c(cc(C)c2[C@H](OC(C)(C)C)C(=O)O)N(C(=O)c2cccc(F)c2)CC3)cc1 [Example 29, (S)-2-(tert-Butoxy)-2-(1-(3-fluorobenzoyl)-6-methyl-4-(p-tolyl)indolin-5-yl)acetic acid] | 17
25 | Cc1cc2c(c(-c3cc(F)c4c(c3C)CCCO4)c1[C@H](OC(C)(C)C)C(=O)O)CCN2C(=O)c1ccc(C(F)(F)F)nc1 (atropisomer, axis not shown) [Example 172, (S)-2-(tert-butoxy)-2-((R)-4-(8-fluoro-5-methylchroman-6-yl)-6-methyl-1-(6-(trifluoromethyl)nicotinoyl)indolin-5-yl)acetic acid] | 6
26 | Cc1ccc(C(=O)N2CCc3c2cc(C)c([C@H](OC(C)(C)C)C(=O)O)c3-c2cc(F)c3c(c2C)CCCO3)c(F)c1 (atropisomer, axis not shown) [Example 139, (S)-2-(tert-Butoxy)-2-((R)-1-(2-fluoro-4-methylbenzoyl)-4-(8-fluoro-5-methylchroman-6-yl)-6-methylindolin-5-yl)acetic acid] | 6
27 | COc1cc(C)ccc1C(=O)N1CCc2c1cc(C)c([C@H](OC(C)(C)C)C(=O)O)c2-c1cc(F)c2c(c1C)CCCO2 (atropisomer, axis not shown) [Example 159, (S)-2-(tert-Butoxy)-2-((R)-4-(8-fluoro-5-methylchroman-6-yl)-1-(2-methoxy-4-methylbenzoyl)-6-methylindolin-5-yl)acetic acid] | 4
28 | COc1ccc(C(=O)N2CCc3c2cc(C)c([C@H](OC(C)(C)C)C(=O)O)c3-c2cc(F)c3c(c2C)CCCO3)cc1Cl (atropisomer, axis not shown) [Example 124, (S)-2-(tert-Butoxy)-2-((R)-1-(3-chloro-4-methoxybenzoyl)-4-(8-fluoro-5-methylchroman-6-yl)-6-methylindolin-5-yl)acetic acid] | 3
29 | Cc1ccc(-c2c3c(cc(C)c2[C@H](OC(C)(C)C)C(=O)O)N(C(=O)C2CCCCC2)CC3)cc1 [Example 41, (S)-2-(tert-Butoxy)-2-(1-(cyclohexanecarbonyl)-6-methyl-4-(p-tolyl)indolin-5-yl)acetic acid] | 17
